Earlier results on one compound are cited in US8580317B2, “Compositions and methods for treating acne” (Revance Therapeutics, Inc., priority 2005, dated 2013).

For data set [1] the following is noted: benzoyl peroxide topically applied.
Data set [2] concerns propionibacterium acnes (P. Acnes). The note with it: background statement.

Take `O=C(OOC(=O)c1ccccc1)c1ccccc1` [benzoyl peroxide]: the “share of the population that experiences skin allergies” value in data set [1] is “about 10%”. Besides, the “kills P. acnes compared with other medications” value in data set [2] is on record as “better than any other medication on the market”.
